Earlier results as cited in patent US6794370B2, “Method for treating cancer using camptothecin derivatives and 5-fluorouracil” (priority 1999, dated 2004).
Where two headings read alike, the source gives them in different places.

Legend:
[1] = test system: colorectal cancer; details: metastatic disease, compared to no antitumour therapy
[2] = test system: colorectal cancer
[3] = test system: colorectal cancer; details: compared with supportive care only
[4] = test system: metastatic colorectal cancer; details: 125 mg/m^2 intravenously

Molecule | survival time [1] [months] | median survival time ([2]; bolus administration) [months] | response rate ([2]; bolus administration) [%] | median survival time ([2]; infusional administration) [months] | response rate ([2]; infusional administration) [%] | quality of life [3] | survival [3] | median survival ([4]; first of two studies) [months] | response rate ([4]; first of two studies) [%] | median survival ([4]; second of two studies) [months] | response rate ([4]; second of two studies) [%]
O=c1[nH]cc(F)c(=O)[nH]1 [5-FU, 5-fluorouracil] | 11 | 11.3 | 14 | 12.1 | 22 | – | – | – | – | – | –
Irinotecan [CPT-11] | – | – | – | – | – | better quality of life | longer survival | 12.1 | 32 | 11.8 | 26
